Data from ChEMBL document CHEMBL4665769, “Artemyrianolides A-S, Cytotoxic Sesquiterpenoids from Artemisia myriantha” (J Nat Prod, 2020).

Columns and labels:
Format in all cases: functional, cell-based
SMMC-7721 = test: Cytotoxicity against human SMMC-7721 cells assessed as reduction in cell viability after 48 hrs by MTT assay; conditions: SMMC-7721, 48 h
Huh-7 = test: Cytotoxicity against human Huh-7 cells assessed as reduction in cell viability after 48 hrs by MTT assay; conditions: Huh-7, 48 h
HepG2 = test: Cytotoxicity against human HepG2 cells assessed as reduction in cell viability after 48 hrs by MTT assay; conditions: HepG2, 48 h

Compound	IC50 (SMMC-7721)	IC50 (Huh-7)	IC50 (HepG2)
C=C1C(=O)O[C@H]2C/C(C)=C/[C@H](OC(C)=O)C[C@@]3(C)O[C@H]3C[C@H]12	> 10 µM	> 10 µM	> 10 µM
C=C1C[C@@H]2OC(=O)C(=C)[C@H]2C[C@@H]2[C@@H]1[C@H](OC(C)=O)C[C@@]2(C)O	> 10 µM	> 10 µM	> 10 µM
C=C1C(=O)O[C@H]2C/C(C)=C/[C@H](OC(C)=O)C[C@@]3(CO3)C(=O)C[C@H]12	> 10 µM	8.8 µM	8.6 µM
C=C1C[C@H]2OC(=O)C(=C)[C@H]2C[C@@H](O)C(=C)CCC1=O	> 10 µM	> 10 µM	> 10 µM
C=C1C(=O)O[C@@H]2CC(=C)[C@@H]3CC[C@@](C)(O)[C@@H]3C[C@H]12	> 10 µM	> 10 µM	> 10 µM
C=C1C[C@@H](OC(C)=O)/C=C(\C)C[C@@H]2OC(=O)C(=C)[C@H]2C[C@@H]1OC(C)=O	> 10 µM	> 10 µM	> 10 µM
C=C1C(=O)O[C@@H]2C[C@]3(C)[C@@H](CCC(C)=O)[C@@H]3C[C@H]12	> 10 µM	7.8 µM	> 7.4 µM
C=C1C[C@@H](OC(C)=O)/C=C(\C)C[C@@H]2OC(=O)C(=C)[C@H]2C[C@@H]1OO	> 10 µM	10 µM	> 10 µM
C=C1C(=O)O[C@H]2C/C(C)=C/[C@H](OC(C)=O)CC(=C)[C@@H](O)C[C@H]12	> 10 µM	> 10 µM	> 10 µM
C=C1C(=O)O[C@H]2C[C@@]3(C)[C@H](O)CCC(=C)[C@]3(OO)C[C@H]12	> 10 µM	> 10 µM	> 10 µM
CNC(=O)c1cc(Oc2ccc(NC(=O)Nc3ccc(Cl)c(C(F)(F)F)c3)cc2)ccn1 [SORAFENIB]	> 10 µM	10.1 µM	8 µM
C=C1C[C@@H](OC(C)=O)/C=C(\C)C[C@@H]2OC(=O)C(=C)[C@H]2C[C@H]1O	> 10 µM	> 10 µM	> 10 µM
C=C1C(=O)O[C@@H]2C[C@@]3(C)CCCC(=C)[C@]3(O)C[C@H]12 [TELEKIN]	> 10 µM	> 10 µM	> 10 µM
C=C1C[C@@H](OC(C)=O)/C=C(\C)C[C@@H]2OC(=O)C(=C)[C@H]2CC1=O	3.1 µM	4.3 µM	4.9 µM
C=C1C(=O)O[C@@H]2C[C@]3(C)O[C@H](C[C@H]12)C(=C)CC[C@@H]3O	> 10 µM	> 10 µM	> 10 µM
C=C1C(=O)O[C@@H]2C[C@]3(C)[C@@H](C[C@H]12)[C@H](C)C(=O)[C@@H]1O[C@@H]13	> 10 µM	> 10 µM	> 10 µM
C=C1C(=O)O[C@H]2C[C@@]3(C)[C@H](O)CCC(=C)[C@]3(O)C[C@H]12	> 10 µM	> 10 µM	> 10 µM
C=C1C(=O)O[C@@H]2C[C@H](C)[C@]3(/C=C/C(C)=O)O[C@@H]3C[C@H]12	> 10 µM	8.2 µM	> 10 µM
C=C1C(=O)O[C@@H]2C[C@@]3(C)C=CC(=O)C(C)=C3C[C@H]12	> 10 µM	> 10 µM	> 10 µM
